According to patent publication US20160137639A1, “TRIAZOLE-ISOXAZOLE COMPOUND AND MEDICAL USE THEREOF” (JAPAN TOBACCO INC., priority 2012, published 2016):
Read-outs that look alike come from different tables or passages of the source.

How the values were obtained:
mouse RORγ = biological target: T1, mouse RORγ (Mus musculus, UniProt P51450); test: Luciferase reporter gene assay of inhibitory effect against RORγ transcriptional activity (GAL4-mRORγ plasmid in CHO cells); type: cell-based
T1 construct: mouse, NM_011281.2 and from Ile251 to Lys516; expressed in transfected cells; host or cells: CHO cells (transient co-transfection with pG5-Luc reporter)
T1 sequence (P51450 251-516): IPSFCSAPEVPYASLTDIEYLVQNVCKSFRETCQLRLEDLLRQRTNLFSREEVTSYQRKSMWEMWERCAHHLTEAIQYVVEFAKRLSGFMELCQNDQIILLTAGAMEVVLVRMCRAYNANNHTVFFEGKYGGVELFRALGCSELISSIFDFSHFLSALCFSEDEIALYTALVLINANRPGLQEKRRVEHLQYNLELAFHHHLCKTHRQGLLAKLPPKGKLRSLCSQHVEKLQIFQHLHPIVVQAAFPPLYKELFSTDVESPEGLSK
How it was run: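 Readout is intracellular luciferase after 2-day compound exposure (8 concentrations, 0.1% DMSO) in CHO cells expressing GAL4 fused to mouse RORγ LBD residues Ile251–Lys516 plus pG5-Luc reporter. EC50 fitted from %-of-control; points showing resazurin-detected cytotoxicity dropped.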

human RORγ = biological target: T2, human RORγ (Homo sapiens, UniProt P51449); test: Luciferase reporter gene assay of inhibitory effect against RORγ transcriptional activity (GAL4-hRORγ plasmid in CHO cells); type: cell-based
T2 construct: human, NM_005060.3 and from Ser253 to Lys518; expressed in transfected cells; host or cells: CHO cells (transient co-transfection with pG5-Luc reporter)
T2 sequence (P51449 253-518): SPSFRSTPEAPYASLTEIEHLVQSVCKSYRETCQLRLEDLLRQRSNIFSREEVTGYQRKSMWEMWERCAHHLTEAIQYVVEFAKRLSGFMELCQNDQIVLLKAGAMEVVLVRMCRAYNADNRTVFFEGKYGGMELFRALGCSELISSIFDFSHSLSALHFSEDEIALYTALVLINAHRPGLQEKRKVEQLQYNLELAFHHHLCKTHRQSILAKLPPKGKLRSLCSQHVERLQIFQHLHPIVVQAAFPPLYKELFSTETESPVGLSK

SMILES | EC50 (mouse RORγ; read-out: LUC EC50 (μM) mRORg) [µM] | EC50 (human RORγ; read-out: LUC EC50 (μM) hRORg) [µM] | EC50 (mouse RORγ; read-out: LUC EC50 mRORg) [µM] | EC50 (human RORγ; read-out: LUC EC50 hRORg) [µM]
Cc1cc(F)ccc1NC(=O)CCc1nnc(CCC(C)C)n1C1CC1 [Example F-137] | < 3 | > 3 |  | 
Cc1cc(Cl)ccc1NC(=O)C[C@H](CC(C)C)c1nnc(-c2cc(CCC(C)C)on2)n1C1CC1 [Example F-628] |  |  | < 3 | < 3
Cc1ccncc1NC(=O)CCc1nnc(CCC(C)C)n1C1CC1 [Example F-90] | > 3 | > 3 |  | 
CCN(CC)CC(=O)N1C[C@H](C(=O)Nc2ccc(C)cc2C)[C@@H](c2nnc([C@H]3C[C@@H](CC(C)C)C3)n2C2CC2)C1 [Example F-654] |  |  | < 3 | > 3
CC(=O)N1C[C@H](C(=O)Nc2ccc(C)cc2C)[C@@H](c2nnc(CCC(C)C)n2C2CC2)C1 (racemic) [Example F-162] | < 3 | > 3 |  | 
Cc1c(Cl)cccc1NC(=O)CCc1nnc(CCCC(C)(C)C)n1C1CC1 [Example F-181] | < 3 | < 3 |  | 
CCc1c(CCC(=O)Nc2cccc3ccccc23)noc1C1Cc2ccccc2C1 [Example F-14] | < 3 | < 3 |  | 
COC(C)(C)CCCc1nnc([C@H]2CN(C(C)=O)C[C@@H]2C(=O)Nc2ccc(C)cc2C)n1C1CC1 (racemic) [Example F-290] | > 3 | > 3 |  | 
Cc1ccc(NC(=O)CC(Cc2ncco2)c2nnc([C@H]3C[C@@H](CC(C)C)C3)n2C2CC2)c(C)c1 (mixture of isomers) [Example F-454] | < 3 | < 3 |  | 
Cc1ccc(NC(=O)C[C@H](CCCO)c2nnn([C@H]3C[C@@H](CC(C)(C)C(C)C)C3)c2C2CC2)c(F)c1 [Example F-709] |  |  | < 3 | < 3
Cc1ccc(NC(=O)C[C@H](CC#N)c2nnc([C@H]3C[C@@H](CC(C)C)C3)n2C2CC2)c(C)c1 [Example F-465] | < 3 | < 3 |  | 
COc1cc(C)ccc1CNC(=O)[C@H]1CCC(=O)N(C)[C@@H]1c1nnc(CCCC(C)(C)C)n1C1CC1 [Example F-323] | < 3 | < 3 |  | 
Cc1ccc(NC(=O)C[C@H](CNC(=O)CC#N)c2noc([C@H]3C[C@@H](CC(C)C)C3)c2C2CC2)c(C)c1 [Example F-647] |  |  | < 3 | < 3
Cc1c(Cl)cccc1NC(=O)CCc1nnc(CCC(=O)O)n1C1CC1 [Example F-185] | > 3 | > 3 |  | 
Cc1c(Cl)cccc1NC(=O)CCc1nnc(C2CN(C(=O)OC(C)(C)C)C2)n1C1CC1 [Example F-234] | < 3 | > 3 |  | 
Cc1ccc(NC(=O)[C@H]2CN(C)C(=O)[C@@H]2c2nnc(CCCC(C)(C)C)n2C2CC2)c(C)c1 [Example F-303] | < 3 | < 3 |  | 
COc1cc(C)ccc1CNC(=O)C[C@H](NC(C)=O)c1nnc(CCCC(C)C)n1C1CC1 [Example F-312] | > 3 | > 3 |  | 
Cc1ccc(NC(=O)CCc2nnc(-c3ccc(OC(C)C)cc3)n2C2CC2)c(C)c1 [Example F-441] | < 3 | > 3 |  | 
COC1C[C@H](C(=O)Nc2ccc(C)cc2C)[C@@H](c2nnc([C@H]3C[C@@H](CC(C)C)C3)n2C2CC2)C1 (single isomer, unassigned) [Example F-556] |  |  | < 3 | < 3
CC(=O)N1C[C@H](C(=O)Nc2ccc(C)cc2C)[C@@H](c2nnc(C(O)CCC(C)(C)C)n2C2CC2)C1 (single isomer, unassigned) [Example F-348] | > 3 | > 3 |  | 
COc1cc(C)ccc1CNC(=O)CC(CCO)c1nnc(CCC(C)C)n1C1CC1 (racemic) [Example F-176] | > 3 | > 3 |  | 
Cc1ccc(NCc2nnc(CCC(=O)Nc3cccc(Cl)c3C)n2C2CC2)cc1 [Example F-180] | < 3 | > 3 |  | 
CC(C)CCc1nnc(CCC(=O)NCc2ccccc2Cl)n1C1CC1 [Example F-121] | > 3 | > 3 |  | 
Cc1ccc(NC(=O)C[C@H](CCO)c2nnc(CCCC(C)(C)C)n2CC(F)(F)F)c(C)c1 [Example F-380] | < 3 | < 3 |  | 
Cc1ccc(NC(=O)[C@H]2CC(F)(F)C[C@@H]2c2nnc(-c3cc(CC(C)C)on3)n2C2CC2)c(C)c1 (racemic) [Example F-570] |  |  | > 3 | < 3

SMILES | EC50 (mouse RORγ; read-out: LUC EC50 (μM) mRORg) [µM] | EC50 (human RORγ; read-out: LUC EC50 (μM) hRORg) [µM] | EC50 (mouse RORγ; read-out: LUC EC50 mRORg) [µM] | EC50 (human RORγ; read-out: LUC EC50 hRORg) [µM]
CC(=O)N1C[C@H](C(=O)Nc2ccc(C)cc2C)[C@@H](c2nnc(C3CN(C(=O)N(C)C(C)C)C3)n2C2CC2)C1 (racemic) [Example F-419] | > 3 | > 3 |  | 
CC(=O)N1C[C@H](C(=O)Nc2ccc(C)cc2C)[C@@H](c2nnc(C(O)CCC(C)(C)C)n2C2CC2)C1 (single isomer, unassigned) [Example F-349] | > 3 | > 3 |  | 
C=CCC(CC(=O)Nc1ccc(C)cc1C)c1nnc(CCCC(C)(C)C)n1CC(F)(F)F (racemic) [Example F-373] | < 3 | < 3 |  | 
CC(C)(C)Cc1cc(-c2onc([C@@H](CCC(=O)O)CC(=O)Nc3ccc(Cl)cc3Cl)c2C2CC2)no1 [Example E-78] |  |  | < 3 | < 3
CC(=O)N1C[C@H](C(=O)Nc2ccc(C)cc2C)[C@@H](c2nnc([C@H]3C[C@@H](OC(C)C)C3)n2C2CC2)C1 [Example F-336] | > 3 | > 3 |  | 
Cc1c(Cl)cccc1NC(=O)CCc1nnc(C(O)CC(C)C)n1C1CC1 (racemic) [Example F-182] | < 3 | > 3 |  | 
CC(=O)N1C[C@H](C(=O)Nc2ccc(C)cc2C)[C@@H](c2nnc(CCOC(C)(C)C(F)(F)F)n2C2CC2)C1 (racemic) [Example F-325] | < 3 | < 3 |  | 
Cc1cnccc1CNC(=O)CCc1nnc(CCC(C)C)n1C1CC1 [Example F-111] | > 3 | > 3 |  | 
COc1cc(C(F)(F)F)ccc1CNC(=O)CCc1nnc(CCC(C)C)n1C1CC1 [Example F-263] | < 3 | < 3 |  | 
Cc1c(Cl)cccc1NC(=O)CCc1nnc(C2CN(C(=O)C(C)C)C2)n1C1CC1 [Example F-259] | > 3 | > 3 |  | 
Cc1ccc(NC(=O)CCc2nnc(C3CC(COC(C)C)C3)n2C2CC2)c(C)c1 (single isomer, unassigned) [Example F-477] | < 3 | < 3 |  | 
Cc1ccc(NC(=O)C(C)C(CCO)c2nnc([C@H]3C[C@@H](CC(C)C)C3)n2C2CC2)c(C)c1 (single isomer, unassigned) [Example F-491] | < 3 | > 3 |  | 
Cc1ccc(NC(=O)C[C@H](CCC(=O)O)c2noc(-c3noc(CCC(C)C)c3Cl)c2C2CC2)c(Cl)c1 [Example E-10] | < 3 | < 3 |  | 
CC(=O)N1C[C@@H](C(=O)Nc2ccc(C)cc2C)[C@H](c2nnc(-c3cc(CC(C)C)on3)n2C2CC2)C1 [Example F-409] | > 3 | > 3 |  | 
Cc1ccc(NC(=O)C[C@H](CCc2noc(=O)[nH]2)c2noc([C@H]3C[C@@H](CC(C)C)C3)c2C2CC2)c(C)c1 [Example F-643] |  |  | < 3 | < 3
COc1c(C)ccc(NC(=O)C[C@H](CCCO)c2noc([C@H]3C[C@@H](CC(C)(C)C)C3)c2C2CC2)c1C [Example F-696] |  |  | < 3 | < 3
CCn1c(CCC(=O)Nc2cccc3ccccc23)nnc1CCC(C)(C)C [Example F-25] | < 3 | > 3 |  | 
Cc1ccc(NC(=O)[C@H]2CC(CO)C[C@@H]2c2nnc([C@H]3C[C@@H](CC(C)C)C3)n2C2CC2)c(C)c1 (single isomer, unassigned) [Example F-512] |  |  | < 3 | < 3
Cc1ccc(NC(=O)CC(CCN(C)C)c2nnc(CCCC(C)C)n2C2CC2)c(C)c1 (racemic) [Example F-276] | > 3 | > 3 |  | 
CC(=O)N[C@@H](CC(=O)Nc1ccc(C)cc1C)c1nnc(CCCC(C)(C)C)n1C1CC1 [Example F-344] | < 3 | < 3 |  | 
Cc1ccc(NC(=O)C[C@H](CCC(=O)O)c2noc(-c3cc(CCC(C)(C)C)on3)c2C2CC2)c(C)c1 [Example E-32] | < 3 | < 3 |  | 
Cc1ccc(NC(=O)CCc2nnc([C@H]3C[C@@H](CC(C)(C)C)C3)n2C2CC2)c(C)c1 [Example F-426] | < 3 | < 3 |  | 
CN[C@@H](CC(=O)Nc1ccc(C)cc1C)c1nnc(CCCC(C)(C)C)n1C1CC1 [Example F-353] | < 3 | < 3 |  | 
Cc1ccc(NC(=O)CC(CC#N)c2nnc(CCCC(C)(C)C)n2C2CC2)c(C)c1 (racemic) [Example F-440] | < 3 | < 3 |  | 
Cc1ccc(NC(=O)C[C@H](OCc2ccccc2)c2nnc([C@H]3C[C@@H](CC(C)C)C3)n2C2CC2)c(C)c1 [Example F-581] |  |  | < 3 | < 3
